Where a name gives a salt, the structure may show the parent alone.
Test system: AB-PINACA antibody (raised against immunogen 2 of Example 6)
Assay: AB-PINACA ELISA, final validated kit with Tracer-2 (Example 10), specificity
Type: binding
Details: for % Cross-Reactivity: AB-PINACA N-Pentanoic acid = 100
Procedure: A microtitre plates was precoated with AB-PINACA antibody (raised against immunogen 2 of Example 6). Pinaca derivative (antigen), if present in the sample competes with the horseradish peroxidase labelled AB-PINACA (enzyme labelled antigen, herein Tracer-2 of Example 8) for a limited number of antibody sites on the microtitre plate. After incubation at room temperature to allow a competition reaction to take place, the microtitre plate was washed to remove excess reagents. The enzyme substrate ([…]) was added. After an incubation period to allow maximum colour development, the colour reaction was stopped by the addition of acid. This produces a colour change from blue to yellow, and the absorbances are read at 450 nm. A standard curve was then constructed to determine the Pinaca derivative's concentration in the sample.
All reagents were left to reach room temperature (+15 to +25° C.) prior to use. In order to minimise edge effects microtitre plate was sealed with an adhesive plate sealer.
The assay was performed in duplicate. The following layout was used for a test plate where each box represents 2 wells.
• a) The following was pipetted into the appropriate wells of the microtitre plate:
• b) The microtitre plate was gently tapped plate from side to side for a few seconds. • c) The microtitre plate was covered with a plate sealer before incubating for 30 minutes at room temperature (+15 to +25° C.) in the dark. • d) The plate was inverted and the liquid was tapped out. • e) The plate was washed 6 times with diluted wash buffer (ensuring all wells were filled), over a 10-15 minute period. After the final wash the liquid was discarded and the plate was tapped onto lint free tissue paper until completely dry. • f) Immediately after washing, 125 μL of the one shot substrate II solution was pipetted into each well using a multichannel pipette. The microtitre plate was gently tapped from side to side and incubated for (20±2 minutes) at room temperature (+15 to +25° C.) in the dark. • g) The colour reaction was stopped by the addition of 100 μL of stop solution per well. A colour change from blue to yellow should be evident. • h) The optical density was measured at 450 nm within 10 minutes of stopping the colour reaction. The use of a 630 nm filter is recommended as the reference wavelength, if available. Standard Curve and Interpretation of Results • a) The mean absorbance of the standards, controls and samples were calculated. • b) The absorbances of standards against log10 (standard concentration) were plotted. • c) The control and sample concentrations were read from the standard curve. • d) To obtain concentrations for urine samples in ng/mL, the results were multiplied by 3 to take into account the dilution factor. • e) To obtain concentrations for whole blood samples in ng/mL, the results were multiplied by 4 to take into account the dilution factor. • f) It is recommended that a 4 parameter curve fit method is used when generating the standard curve. Limits of Detection

Row | SMILES | % Cross-Reactivity [%] | Concentration of compounds that elicit a negative response at the indicated concentration [ng/mL]
1 | CC(C)C(NC(=O)c1nn(CCCC(O)CF)c2ccccc12)C(N)=O (stereo not shown) | 24.1 | –
2 | CC(C)(C)C(NC(=O)c1nn(CCCCCO)c2ccccc12)C(N)=O (stereo not shown) | 15.2 | –
3 | CCCCCn1nc(C(=O)NC23CC4CC(CC(O)(C4)C2)C3)c2ccccc21 [3-OH AKB-48] | <1 | –
4 | CCCCCn1cc(C(=O)NC23CC4CC(CC(O)(C4)C2)C3)c2ccccc21 [3-OH SDB-001] | <1 | –
5 | CC(O)CCCn1nc(C(=O)NC(C(N)=O)C(C)C)c2ccccc21 (stereo not shown) [4-Hydroxypentyl AB-PINACA, 1-(4-hydroxypentyl) AB-Pinaca] | 85.2 | –
6 | CC(C)(C)C(NC(=O)c1nn(CCCCCF)c2ccccc12)C(N)=O (stereo not shown) [5-Fluoro ADB-PINACA] | 9.8 | –
7 | CC(C)(C)C(NC(=O)c1cn(CCCCCF)c2ccccc12)C(N)=O (stereo not shown) [5-Fluoro ADBICA] | 4.7 | –
8 | O=C(O)c1cn(CCCCCF)c2ccccc12 [5-fluoro PB-22 3-carboxyindole] | – | 100
9 | O=C(Oc1cccc2cccnc12)c1cn(CCCCCF)c2ccccc12 [5-fluoro PB-22] | – | 100
10 | O=C(O)CCCCn1cc(C(=O)C23CC4CC(CC(C4)C2)C3)c2ccccc21 [AB001 N-Pentanoic Acid] | – | 100
11 | O=C(c1cn(CCCCCO)c2ccccc12)C12CC3CC(CC(C3)C1)C2 [AB-001 N-Pentanol] | <1 | –
12 | CC(C)[C@H](NC(=O)c1nn(CC2CCCCC2)c2ccccc12)C(N)=O [AB-CHMINACA] | 3.8 | –
13 | CC(C)C(NC(=O)c1nn(Cc2ccc(F)cc2)c2ccccc12)C(=O)O (stereo not shown) [AB-FUBINACA carboxylic acid] | 4.5 | –
14 | CCCCCn1nc(C(=O)NC(C(=O)O)C(C)C)c2ccccc21 (stereo not shown) [AB-PINACA carboxylic acid] | <1 | –
15 | CC(C)(C)C(NC(=O)c1nn(CCCCC(=O)O)c2ccccc12)C(N)=O (stereo not shown) [ADB-PINACA pentanoic acid metabolite] | 32.8 | –
16 | CCCCCn1cc(C(=O)NC(C(N)=O)C(C)(C)C)c2ccccc21 (stereo not shown) [ADBICA] | 0.7 | –
17 | CC(O)CCCn1nc(C(=O)NC23CC4CC(CC(C4)C2)C3)c2ccccc21 (stereo not shown) [AKB48 N-(4-hydroxypentyl) metabolite] | <1 | –
18 | O=C(NC12CC3CC(CC(C3)C1)C2)c1nn(CCCCCO)c2ccccc12 [AKB48 N-(5-hydroxypentyl) metabolite] | <1 | –
19 | O=C(O)CCCCn1nc(C(=O)NC23CC4CC(CC(C4)C2)C3)c2ccccc21 [AKB48 N-Pentanoic acid metabolite] | <1 | –
20 | O=C(c1ccccc1I)c1cn(CCCCCF)c2ccccc12 [AM-694] | – | 100
21 | O=C(c1cccc2ccccc12)c1cn(CCCCCF)c2cc(O)ccc12 [AM-2201 6-Hydroxyindole] | – | 100
22 | O=C(c1cccc2ccccc12)c1cn(CCCCCF)c2ccccc12 [AM-2201] | – | 100
23 | N#CCCCCn1cc(C(=O)c2cccc3ccccc23)c2ccccc21 [AM-2232] | – | 100
24 | O=C(O)c1cn(CC2CCCCC2)c2ccccc12 [BB-22 3-Carboxyindole metabolite] | – | 100
25 | O=C(Oc1cccc2cccnc12)c1cn(CC2CCCCC2)c2ccccc12 [BB-22] | – | 100
26 | CC1(C)C(C(=O)c2cn(CC3CCOCC3)c3ccccc23)C1(C)C [Hapten A-834735] | – | 100

Row | SMILES | % Cross-Reactivity [%] | Concentration of compounds that elicit a negative response at the indicated concentration [ng/mL]
27 | COc1ccccc1CC(=O)c1cn(CCCC(C)O)c2ccccc12 (stereo not shown) [JWH 250 N-(4-hydroxypentyl) metabolite] | – | 100
28 | CCCCCn1c(C)c(C(=O)c2cccc3ccccc23)c2ccccc21 [JWH-007] | – | 100
29 | CCCn1c(C)c(C(=O)c2cccc3ccccc23)c2ccccc21 [JWH-015] | – | 100
30 | CCCCCn1cc(C(=O)c2cccc3ccccc23)c2c(O)cccc21 [JWH-018 4-Hydroxyindole] | – | 100
31 | CCCCCn1cc(C(=O)c2cccc3ccccc23)c2cc(O)ccc21 [JWH-018 5-Hydroxyindole] | – | 100
32 | CCCCCn1cc(C(=O)c2cccc3ccccc23)c2ccc(O)cc21 [JWH-018 6-Hydroxyindole] | – | 100
33 | O=C(c1cccc2ccccc12)c1cn(CCCCCO)c2ccccc12 [JWH-018 N-(5-Hydroxypentyl)] | – | 100
34 | O=C(O)CCCCn1cc(C(=O)c2cccc3ccccc23)c2ccccc21 [JWH-018 N-Pentanoic acid] | – | 100
35 | CCCCCn1cc(C(=O)c2cccc3ccccc23)c2ccccc21 [JWH-018] | – | 100
36 | CCCCCCn1cc(C(=O)c2cccc3ccccc23)c2ccccc21 [JWH-019] | – | 100
37 | CCCCn1cc(C(=O)c2cccc3ccccc23)c2c(O)cccc21 [JWH-073 4-Hydroxyindole] | – | 100
38 | CCCCn1cc(C(=O)c2cccc3ccccc23)c2cc(O)ccc21 [JWH-073 5-Hydroxyindole] | – | 100
39 | O=C(O)CCCn1cc(C(=O)c2cccc3ccccc23)c2ccccc21 [JWH-073 N-Butanoic acid] | – | 100
40 | O=C(c1cccc2ccccc12)c1cn(CCCCO)c2ccccc12 [JWH-073 N-Butanol] | – | 100
41 | CCCCn1cc(C(=O)c2cccc3ccccc23)c2ccccc21 [JWH-073] | – | 100
42 | CCCCCn1cc(C(=O)c2ccc(OC)c3ccccc23)c2ccccc21 [JWH-081] | – | 100
43 | O=C(c1cccc2ccccc12)c1cn(CCN2CCOCC2)c2ccccc12 [JWH-200] | – | 100
44 | CCCCCn1cc(C(=O)Cc2ccccc2Cl)c2ccccc21 [JWH-203] | – | 100
45 | CCCCCn1cc(C(=O)c2ccc(CC)c3ccccc23)c2ccccc21 [JWH-210] | – | 100
46 | COc1ccccc1CC(=O)c1cn(CCCCCC(=O)O)c2ccccc12 [JWH-250 N-(5-Carboxypentyl)] | – | 100
47 | COc1ccccc1CC(=O)c1cn(CCCCCO)c2ccccc12 [JWH-250 N-(5-Hydroxypentyl)] | – | 100
48 | CCCCCn1cc(C(=O)c2ccc(Cl)c3ccccc23)c2ccccc21 [JWH-398] | – | 100
49 | CCCCCn1nc(C(=O)Nc2cccc3ccccc23)c2ccccc21 [MN-18] | <1 | –
50 | COc1cccc2c(C(=O)N[C@@H]3C(C)(C)[C@@H]4CC[C@@]3(C)C4)cn(CCN3CCOCC3)c12 [MN-25] | <1 | –
51 | CN(C)C(=N)N=C(N)N [Metformin HCl] | – | 10000
52 | CCCCCn1cc(C(=O)Nc2cccc3ccccc23)c2ccccc21 [NNEI] | – | 100

— patent US10509046B2, “Detection of indazole synthetic cannabinoids” (Randox Laboratories Limited, priority 2014, dated 2019)
